Source: PMC10539439 (Pharmacological Reports, 2023)
“And” between values parts separate entries of the source, which are not always exact repeats. Equal entries are not always repeated.

Test: Blood pressure of anaesthetized normotensive rats
Assay type: in vivo, rat
Method: Eighteen normotensive rats were anaesthetized with thiopental (70 mg/kg) by ip injection. The left carotid artery was cannulated with tubing filled with heparin solution in saline to facilitate pressure measurements using Apparatus PowerLab 4/35 (ADInstruments, Australia). Blood pressure was measured: before ip administration of 4-OH-Guanabenz at the doses of 2 or 5 or 10 mg/kg b.w. or water – time 0 min (control pressure) and continuously during the next 60 min.

[1] = 2 mg/kg, time 0, individual rats 1-6
[2] = 2 mg/kg, time 5, individual rats 1-6
[3] = 2 mg/kg, time 10, individual rats 1-6
[4] = 2 mg/kg, time 15, individual rats 1-6
[5] = 2 mg/kg, time 20, individual rats 1-6
[6] = 2 mg/kg, time 30, individual rats 1-6
[7] = 2 mg/kg, time 40, individual rats 1-6
[8] = 2 mg/kg, time 50, individual rats 1-6
[9] = 2 mg/kg, time 60, individual rats 1-6
[10] = 5 mg/kg, time 0, individual rats 1-6
[11] = 5 mg/kg, time 5, individual rats 1-6
[12] = 5 mg/kg, time 10, individual rats 1-6
[13] = 5 mg/kg, time 15, individual rats 1-6
[14] = 5 mg/kg, time 20, individual rats 1-6
[15] = 5 mg/kg, time 30, individual rats 1-6
[16] = 5 mg/kg, time 40, individual rats 1-6
[17] = 5 mg/kg, time 50, individual rats 1-6
[18] = 5 mg/kg, time 60, individual rats 1-6
[19] = 10 mg/kg, time not printed (1st of 9 lines), individual rats 1-6
[20] = 10 mg/kg, time not printed (2nd of 9 lines), individual rats 1-6
[21] = 10 mg/kg, time not printed (3rd of 9 lines), individual rats 1-6
[22] = 10 mg/kg, time not printed (4th of 9 lines), individual rats 1-6
[23] = 10 mg/kg, time not printed (5th of 9 lines), individual rats 1-6
[24] = 10 mg/kg, time not printed (6th of 9 lines), individual rats 1-6
[25] = 10 mg/kg, time not printed (7th of 9 lines), individual rats 1-6
[26] = 10 mg/kg, time not printed (8th of 9 lines), individual rats 1-6
[27] = 10 mg/kg, time not printed (9th of 9 lines), individual rats 1-6

In the case of `N=C(N)N/N=C/c1c(Cl)cc(O)cc1Cl` [4HOGuanabenz], the diastolic pressure [1] is reported as 104 mmHg and 92 mmHg and 99 mmHg and 108 mmHg and 82 mmHg and 91 mmHg, the systolic pressure [1] is reported as 135 mmHg and 127 mmHg and 134 mmHg and 140 mmHg and 114 mmHg and 116 mmHg and the diastolic pressure [2] is reported as 110 mmHg and 93 mmHg (2×) and 102 mmHg and 104 mmHg and 89 mmHg. For the same compound, the systolic pressure [2] was 140 mmHg and 125 mmHg and 136 mmHg and 137 mmHg and 119 mmHg and 116 mmHg, the diastolic pressure [3] was 105 mmHg and 88 mmHg (2×) and 96 mmHg and 99 mmHg and 92 mmHg and the systolic pressure [3] was 134 mmHg and 120 mmHg and 130 mmHg (2×) and 119 mmHg and 116 mmHg. For the same compound, the diastolic pressure [4] was 103 mmHg and 86 mmHg (2×) and 94 mmHg and 99 mmHg and 89 mmHg, the systolic pressure [4] was 133 mmHg and 117 mmHg and 128 mmHg and 129 mmHg and 115 mmHg and 114 mmHg and the diastolic pressure [5] was 99 mmHg and 84 mmHg and 92 mmHg and 96 mmHg and 86 mmHg and 85 mmHg. The systolic pressure [5] was 128 mmHg and 115 mmHg and 124 mmHg and 125 mmHg and 112 mmHg and 111 mmHg, the diastolic pressure [6] was 96 mmHg and 85 mmHg and 91 mmHg and 94 mmHg and 82 mmHg and 86 mmHg and the systolic pressure [6] was 125 mmHg and 111 mmHg and 120 mmHg and 121 mmHg and 106 mmHg and 107 mmHg. For the same compound, the diastolic pressure [7] was 101 mmHg and 86 mmHg and 90 mmHg and 93 mmHg and 79 mmHg and 85 mmHg, the systolic pressure [7] was 131 mmHg and 116 mmHg and 119 mmHg (2×) and 104 mmHg and 105 mmHg and the diastolic pressure [8] was 99 mmHg and 83 mmHg and 90 mmHg and 95 mmHg and 76 mmHg and 85 mmHg. For the same compound, the systolic pressure [8] was 129 mmHg and 110 mmHg and 116 mmHg and 124 mmHg and 101 mmHg and 104 mmHg, the diastolic pressure [9] was 96 mmHg (2×) and 83 mmHg and 90 mmHg and 73 mmHg and 85 mmHg and the systolic pressure [9] was 125 mmHg and 111 mmHg and 118 mmHg and 122 mmHg and 98 mmHg and 103 mmHg. For the same compound, the diastolic pressure [10] was 73 mmHg and 104 mmHg and 91 mmHg and 101 mmHg and 95 mmHg and 99 mmHg, the systolic pressure [10] was 115 mmHg and 133 mmHg and 114 mmHg and 135 mmHg and 122 mmHg and 131 mmHg and the diastolic pressure [11] was 71 mmHg and 106 mmHg and 112 mmHg and 113 mmHg and 100 mmHg and 108 mmHg. The systolic pressure [11] was 105 mmHg and 136 mmHg and 150 mmHg and 144 mmHg and 133 mmHg and 145 mmHg, the diastolic pressure [12] was 63 mmHg and 92 mmHg and 98 mmHg (2×) and 101 mmHg and 90 mmHg and the systolic pressure [12] was 97 mmHg and 121 mmHg and 129 mmHg and 132 mmHg and 120 mmHg and 130 mmHg. The diastolic pressure [13] was 62 mmHg and 89 mmHg and 87 mmHg and 95 mmHg and 83 mmHg and 91 mmHg, the systolic pressure [13] was 94 mmHg and 117 mmHg and 115 mmHg and 125 mmHg and 110 mmHg and 121 mmHg and the diastolic pressure [14] was 61 mmHg and 89 mmHg and 85 mmHg and 95 mmHg and 79 mmHg and 91 mmHg. For the same compound, the systolic pressure [14] was 93 mmHg and 115 mmHg and 109 mmHg and 124 mmHg and 105 mmHg and 117 mmHg, the diastolic pressure [15] was 63 mmHg and 90 mmHg and 86 mmHg and 93 mmHg (2×) and 77 mmHg and the systolic pressure [15] was 92 mmHg and 117 mmHg and 108 mmHg and 122 mmHg and 103 mmHg and 121 mmHg. For the same compound, the diastolic pressure [16] was 64 mmHg and 87 mmHg and 89 mmHg and 98 mmHg and 78 mmHg and 94 mmHg, the systolic pressure [16] was 92 mmHg and 111 mmHg and 109 mmHg and 127 mmHg and 107 mmHg and 119 mmHg and the diastolic pressure [17] was 65 mmHg and 87 mmHg and 89 mmHg and 91 mmHg and 78 mmHg and 96 mmHg. For the same compound, the systolic pressure [17] was 91 mmHg and 112 mmHg and 110 mmHg and 115 mmHg and 102 mmHg and 124 mmHg, the diastolic pressure [18] was 67 mmHg and 88 mmHg and 84 mmHg and 91 mmHg and 83 mmHg and 93 mmHg and the systolic pressure [18] was 92 mmHg and 112 mmHg and 104 mmHg and 113 mmHg and 111 mmHg and 118 mmHg. The diastolic pressure [19] was 75 mmHg and 81 mmHg and 116 mmHg and 86 mmHg and 114 mmHg and 107 mmHg, the systolic pressure [19] was 113 mmHg and 125 mmHg and 158 mmHg and 100 mmHg and 145 mmHg and 140 mmHg and the diastolic pressure [20] was 95 mmHg and 98 mmHg and 122 mmHg and 99 mmHg and 117 mmHg and 109 mmHg. The systolic pressure [20] was 125 mmHg and 126 mmHg and 177 mmHg and 111 mmHg and 164 mmHg and 139 mmHg, the diastolic pressure [21] was 89 mmHg and 95 mmHg and 109 mmHg and 87 mmHg and 111 mmHg and 107 mmHg and the systolic pressure [21] was 115 mmHg and 124 mmHg and 150 mmHg and 101 mmHg and 151 mmHg and 134 mmHg. For the same compound, the diastolic pressure [22] was 86 mmHg and 95 mmHg and 106 mmHg and 84 mmHg and 107 mmHg and 103 mmHg, the systolic pressure [22] was 112 mmHg and 127 mmHg and 135 mmHg and 96 mmHg and 142 mmHg and 131 mmHg and the diastolic pressure [23] was 84 mmHg (2×) and 92 mmHg and 108 mmHg and 103 mmHg (2×). The systolic pressure [23] was 110 mmHg and 121 mmHg and 133 mmHg and 95 mmHg and 135 mmHg and 129 mmHg, the diastolic pressure [24] was 83 mmHg and 91 mmHg and 105 mmHg and 81 mmHg and 101 mmHg (2×) and the systolic pressure [24] was 108 mmHg and 123 mmHg and 135 mmHg and 91 mmHg and 132 mmHg and 127 mmHg. For the same compound, the diastolic pressure [25] was 82 mmHg and 88 mmHg and 96 mmHg and 80 mmHg and 99 mmHg and 101 mmHg, the systolic pressure [25] was 107 mmHg and 116 mmHg and 126 mmHg and 90 mmHg and 130 mmHg and 124 mmHg and the diastolic pressure [26] was 84 mmHg and 90 mmHg and 106 mmHg and 78 mmHg and 98 mmHg and 97 mmHg. The systolic pressure [26] was 107 mmHg and 121 mmHg and 134 mmHg and 87 mmHg and 129 mmHg and 122 mmHg, the diastolic pressure [27] was 83 mmHg and 92 mmHg and 99 mmHg and 78 mmHg and 101 mmHg and 98 mmHg and the systolic pressure [27] was 107 mmHg and 122 mmHg (2×) and 130 mmHg and 86 mmHg and 131 mmHg.
